Earlier results as cited in US9314524B2, “Topical formulations of Flucytosine” (priority 2007, dated 2016).

Tests used:
[1] = human, in vivo
[2] = test system: 227 clinical yeast isolates; conditions: for cross-resistance in fluconazole/itraconazole resistant C. albicans isolates: polyene antibiotics
Candida tropicalis = conditions: 70 Candida tropicalis strains
C. tropicalis = conditions: 200-mg for 14 days, second line, 3 patients treated
C. albicans = conditions: yeasts from 104 patients with vulvovaginal candidiasis
Candida albicans = conditions: 342 Candida albicans strains
Candida glabrata = conditions: 68 Candida glabrata strains
Candida parapsilosis = conditions: 65 Candida parapsilosis strains
C. glabrata = conditions: 600-mg day for 2 to 3 weeks

## Nc1nc(=O)[nH]cc1F [flucytosine, 4-amino-5-fluoropyrimidin-2(1H)-one]
[1]
  plasma level that led to bone marrow depression and hepatotoxicity: greater than 100 mg/L

## C[C@@H]1[C@H](O)[C@@H](C)/C=C/C=C/CC/C=C/C=C/C=C/C=C/C(O[C@H]2O[C@H](C)[C@@H](O)[C@H](N)[C@@H]2O)CC2O[C@](O)(CC(O)C(O)CCC(O)CC(O)CC(O)CC(=O)O[C@H]1C)CC(O)C2C(=O)O (stereo partly drawn) [nystatin]
[2]
  cross-resistance in fluconazole/itraconazole resistant C. albicans isolates: no cross-resistance

## CC(=O)N1CCN(c2ccc(OCC3COC(Cn4ccnc4)(c4ccc(Cl)cc4Cl)O3)cc2)CC1 (stereo not drawn) [ketoconazole]
Candida tropicalis
  isolates resistant: 2.9%
C. tropicalis
  patients in whom the infection recurred: three

## OC(Cn1cncn1)(Cn1cncn1)c1ccc(F)cc1F [fluconazole]
C. albicans
  resistant C. albicans isolated, share of cases: 13.46%
[2]; 227 vaginal clinical yeast isolates
  yeast strains resistant: thirteen
Candida albicans
  isolates showing resistance: 7.6%
Candida glabrata
  isolates demonstrating resistance: 10.3%
Candida parapsilosis
  isolates demonstrating resistance: 4.6%

## OB(O)O [boric acid]
C. glabrata
  clinical and mycological success: 64%
  clinical and mycological success, symptomatic women: 47 of 73

## C[C@@H]1[C@H](O)[C@@H](C)/C=C/C=C/C=C/C=C/C=C/C=C/C=C/[C@H](O[C@@H]2O[C@H](C)[C@@H](O)[C@H](N)[C@@H]2O)C[C@@H]2O[C@](O)(C[C@@H](O)C[C@@H](O)[C@H](O)CC[C@@H](O)C[C@@H](O)CC(=O)O[C@H]1C)C[C@H](O)[C@H]2C(=O)O [amphotericin B]
[2]
  cross-resistance in fluconazole/itraconazole resistant C. albicans isolates: no cross-resistance
